From PubChem BioAssay (NCI)
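Growth conditions: 96-well plates. Treatment: test compound, 48 hours, 5 concentrations. Analysis: linear interpolation between bracketing concentrations; unreached endpoints set to highest concentration. TGI denotes the concentration required for complete inhibition of growth.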

Legend:
Test in all cases: NCI-60 cell line screen, 48 h
OVCAR-4 ovarian = system: OVCAR-4 ovarian
T-47D breast = system: T-47D breast
ACHN renal = system: ACHN renal
SN12C renal = system: SN12C renal
NCI-H522 lung = system: NCI-H522 lung
MDA-MB-231 breast = system: MDA-MB-231 breast
U251 CNS = system: U251 CNS
NCI-H226 lung = system: NCI-H226 lung
HOP-62 NSCLC = system: HOP-62 NSCLC
HS 578T breast = system: HS 578T breast
OVCAR-5 ovarian = system: OVCAR-5 ovarian
HCC-2998 colon = system: HCC-2998 colon
SF-295 CNS = system: SF-295 CNS
A549 NSCLC = system: A549 NSCLC
UACC-62 melanoma = system: UACC-62 melanoma
K-562 leukemia = system: K-562 leukemia
BT-549 breast = system: BT-549 breast
LOX IMVI melanoma = system: LOX IMVI melanoma
SR leukemia = system: SR leukemia
UO-31 renal = system: UO-31 renal
HCT-116 colon = system: HCT-116 colon
MOLT-4 leukemia = system: MOLT-4 leukemia
HOP-92 NSCLC = system: HOP-92 NSCLC
CCRF-CEM leukemia = system: CCRF-CEM leukemia
NCI-H23 lung = system: NCI-H23 lung
DU-145 prostate = system: DU-145 prostate
OVCAR-8 ovarian = system: OVCAR-8 ovarian
HCT-15 colon = system: HCT-15 colon
SF-268 CNS = system: SF-268 CNS
COLO 205 colon = system: COLO 205 colon
RXF 393 renal = system: RXF 393 renal
OVCAR-3 ovarian = system: OVCAR-3 ovarian
SK-MEL-28 melanoma = system: SK-MEL-28 melanoma
SK-MEL-5 melanoma = system: SK-MEL-5 melanoma
IGROV1 ovarian = system: IGROV1 ovarian
SF-539 CNS = system: SF-539 CNS
HT29 colon = system: HT29 colon
RPMI-8226 leukemia = system: RPMI-8226 leukemia
PC-3 prostate = system: PC-3 prostate
CAKI-1 renal = system: CAKI-1 renal
MDA-MB-435 = system: MDA-MB-435
MDA-N = system: MDA-N
786-0 renal = system: 786-0 renal
MCF7 breast = system: MCF7 breast
SNB-19 CNS = system: SNB-19 CNS
SNB-75 CNS = system: SNB-75 CNS
TK-10 renal = system: TK-10 renal
NCI/ADR-RES ovarian = system: NCI/ADR-RES ovarian
KM12 colon = system: KM12 colon
EKVX NSCLC = system: EKVX NSCLC
SK-MEL-2 melanoma = system: SK-MEL-2 melanoma
SK-OV-3 ovarian = system: SK-OV-3 ovarian
HL-60(TB) leukemia = system: HL-60(TB) leukemia
A498 renal = system: A498 renal
SW-620 colon = system: SW-620 colon
NCI-H460 lung = system: NCI-H460 lung
M14 melanoma = system: M14 melanoma
UACC-257 melanoma = system: UACC-257 melanoma

Measured: TGI

CCc1nc(N)nc(N)c1-c1ccc2nnn(O)c2c1
> 100 µM: OVCAR-4 ovarian | T-47D breast | ACHN renal | SN12C renal | NCI-H522 lung | MDA-MB-231 breast | U251 CNS | NCI-H226 lung | HOP-62 NSCLC | HS 578T breast | OVCAR-5 ovarian | HCC-2998 colon | SF-295 CNS | A549 NSCLC | UACC-62 melanoma | K-562 leukemia | BT-549 breast | LOX IMVI melanoma | SR leukemia | UO-31 renal | HCT-116 colon | MOLT-4 leukemia | HOP-92 NSCLC | CCRF-CEM leukemia | NCI-H23 lung | DU-145 prostate | OVCAR-8 ovarian | HCT-15 colon | SF-268 CNS | COLO 205 colon | RXF 393 renal | OVCAR-3 ovarian | SK-MEL-28 melanoma | SK-MEL-5 melanoma | IGROV1 ovarian | SF-539 CNS | HT29 colon | RPMI-8226 leukemia | PC-3 prostate | CAKI-1 renal | MDA-MB-435 | MDA-N | 786-0 renal | MCF7 breast | SNB-19 CNS | SNB-75 CNS | TK-10 renal | NCI/ADR-RES ovarian | KM12 colon | EKVX NSCLC | SK-MEL-2 melanoma | SK-OV-3 ovarian | HL-60(TB) leukemia | A498 renal | SW-620 colon | NCI-H460 lung | M14 melanoma | UACC-257 melanoma
